Results on six compounds are retold here after article PMC3041981 (ACS medicinal chemistry letters, 2010).

The structures appear in SMILES notation. Read-outs that look alike come from different tables or passages of the source.

For assay [1], the system named is locomotor activity in mice. The experiment in a line: Locomotor stimulant activity in mice. In kind it is in vivo. The settings on record: for Time course of locomotor stimulant effect after injection: 30-min period at the start of each of four hours after administration.
The next assay addresses DAT (Rattus norvegicus, UniProt P23977). The experiment in a line: DAT binding in rat brain membranes.
A further assay addresses SERT (Rattus norvegicus, UniProt P31652). Kind of assay: SERT binding in rat brain membranes. The settings on record: SERT versus DAT and NET binding.

Chain of DAT (P23977 whole entry): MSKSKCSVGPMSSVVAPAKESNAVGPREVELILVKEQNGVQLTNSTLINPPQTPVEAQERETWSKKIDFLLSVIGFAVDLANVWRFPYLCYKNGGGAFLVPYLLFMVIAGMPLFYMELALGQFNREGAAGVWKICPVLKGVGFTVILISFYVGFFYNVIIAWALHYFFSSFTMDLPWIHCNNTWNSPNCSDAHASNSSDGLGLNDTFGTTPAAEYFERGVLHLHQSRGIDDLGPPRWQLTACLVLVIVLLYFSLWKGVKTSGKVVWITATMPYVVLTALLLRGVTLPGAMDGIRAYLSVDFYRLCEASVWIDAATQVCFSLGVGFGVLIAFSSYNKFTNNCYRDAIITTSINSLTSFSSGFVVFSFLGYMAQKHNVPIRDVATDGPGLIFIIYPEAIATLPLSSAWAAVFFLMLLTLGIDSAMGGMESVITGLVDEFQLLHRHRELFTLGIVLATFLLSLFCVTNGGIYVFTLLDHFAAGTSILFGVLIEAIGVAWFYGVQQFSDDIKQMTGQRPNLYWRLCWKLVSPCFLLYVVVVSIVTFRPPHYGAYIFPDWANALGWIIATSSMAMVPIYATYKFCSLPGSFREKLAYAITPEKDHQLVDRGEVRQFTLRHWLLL
Chain of SERT (P31652 whole entry): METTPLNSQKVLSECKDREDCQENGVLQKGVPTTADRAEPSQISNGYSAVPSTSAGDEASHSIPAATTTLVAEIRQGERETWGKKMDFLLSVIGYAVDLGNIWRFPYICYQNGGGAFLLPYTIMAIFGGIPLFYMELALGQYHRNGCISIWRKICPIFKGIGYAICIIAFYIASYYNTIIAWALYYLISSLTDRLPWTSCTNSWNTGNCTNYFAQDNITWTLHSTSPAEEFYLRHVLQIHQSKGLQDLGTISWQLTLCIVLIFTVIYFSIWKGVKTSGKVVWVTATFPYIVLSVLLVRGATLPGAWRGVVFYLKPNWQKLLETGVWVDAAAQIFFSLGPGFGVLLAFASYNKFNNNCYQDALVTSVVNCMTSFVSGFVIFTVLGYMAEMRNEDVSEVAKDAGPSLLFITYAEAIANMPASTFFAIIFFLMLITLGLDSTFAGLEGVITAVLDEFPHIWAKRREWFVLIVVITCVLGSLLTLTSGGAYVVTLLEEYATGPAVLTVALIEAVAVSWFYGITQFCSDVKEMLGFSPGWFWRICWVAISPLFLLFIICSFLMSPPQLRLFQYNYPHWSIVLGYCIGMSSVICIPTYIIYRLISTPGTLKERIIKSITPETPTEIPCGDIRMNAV

Turning to `NC(=O)C[S@+]([O-])C(c1ccccc1)c1ccccc1` [(+)-1], in assay [1], the “Time course of locomotor stimulant effect after injection” value (from here on “Time course”) was “evident up to four hours after injection”.

`[O-][S+](CCNCCCc1ccccc1)C(c1ccccc1)c1ccccc1` (stereo not shown) [9a]: the “DAT binding affinity, comparison in words” value on DAT is on record as “most potent DAT analogue in the series”.

Consider `CN(C)CC[S+]([O-])C(c1ccc(Cl)cc1)c1ccc(Cl)cc1` (stereo not shown) [9d], for which the “Transporter selectivity in words” value at SERT was “SERT-selective”.

Consider `NC(=O)C[S@@+]([O-])C(c1ccccc1)c1ccccc1` [(−)-1], for which the “Time course” value in assay [1] is on record as “evident up to four hours after injection”. At DAT (rat brain membranes, within the series), the “DAT binding affinity, comparison in words” value is on record as “slightly higher affinity than the S”.

With `NC(=O)C[S+]([O-])C(c1ccccc1)c1ccccc1` (racemic) [(±)-1, 2-[(diphenylmethyl)sulfinyl]acetamide], in assay [1], the “Time course” value is “evident up to four hours after injection”.

Take `COC(=O)[C@H]1[C@@H](OC(=O)c2ccccc2)C[C@@H]2CC[C@H]1N2C` [cocaine]: the “Effect on locomotor activity (horizontal activity counts)” value in assay [1] (after injection, 6 mice per point, maximal effect compared with cocaine) is reported as “greatest among the drugs”.
